Reference: ChEMBL document CHEMBL4680224, “Discovery of pyridine tetrahydroisoquinoline thiohydantoin derivatives with low blood-brain barrier penetration as the androgen receptor antagonists” (Eur J Med Chem, 2020)
The source made the active and inactive calls. The rule behind the calls is not given here.

Legend:
[1] = Toxicity in ICR mouse assessed as reduction in body weight at 100 to 1000 mg/kg, po administered for 14 days; assay type: organism-based; conditions: in vivo, 336 h, dose 100-1000 mg/kg, time 14 day
[2] = Toxicity in BALB/c mouse xenografted with LNCaP cells assessed as reduction in body weight at 15 to 45 mg/kg, po administered daily for 21 days; assay type: organism-based; conditions: in vivo, 504 h, dose 15-45 mg/kg, time 21 day
LNCaP [3] = experiment: Antitumour activity against human LNCaP cells xenografted in BALB/c nude mouse assessed as increase in necrosis at 15 to 45 mg/kg, po administered daily for 21 days by H and E staining based optical microscopic method; assay type: functional, organism-based; conditions: dose 15-45 mg/kg, time 21.0 day
LNCaP [4] = experiment: Antitumour activity against human LNCaP cells xenografted in BALB/c nude mouse assessed as decrease in PSA level at 45 mg/kg, po administered daily for 21 days by ELISA relative to control; assay type: functional; design: scale not given: the % may be the effect or the level left; conditions: time 21 day
LNCaP [5] = experiment: Antitumour activity against human LNCaP cells xenografted in BALB/c nude mouse assessed as reduction in tumour weight at 30 mg/kg, po administered daily for 21 days relative to control; assay type: functional; conditions: 504 h, time 21 day, read-out: TGI
[6] = Toxicity in BALB/c mouse xenografted with human LNCaP cells assessed as pathological changes in spleen at 15 to 45 mg/kg, po administered daily for 21 days H and E staining based optical microscopic method; assay type: organism-based; conditions: in vivo, 504 h, dose 15-45 mg/kg, time 21 day
LNCaP [7] = experiment: Antitumour activity against human LNCaP cells xenografted in BALB/c nude mouse assessed as reduction in tumour weight at 15 mg/kg, po administered daily for 21 days relative to control; assay type: functional; conditions: 504 h, time 21 day, read-out: TGI
[8] = Toxicity in ICR mouse assessed as pathological changes in seminal vesicle at 100 to 1000 mg/kg, po administered for 14 days by H and E staining based optical microscopic method; assay type: organism-based; conditions: in vivo, 336 h, dose 100-1000 mg/kg, time 14 day
[9] = Toxicity in BALB/c mouse xenografted with human LNCaP cells assessed as pathological changes in kidney at 15 to 45 mg/kg, po administered daily for 21 days H and E staining based optical microscopic method; assay type: organism-based; conditions: in vivo, 504 h, dose 15-45 mg/kg, time 21 day
in vitro = conditions: human, liver microsomes
Description: Intrinsic clearance in human liver microsomes at 10 uM

[10] = Toxicity in BALB/c mouse xenografted with human LNCaP cells assessed as pathological changes in lung at 15 to 45 mg/kg, po administered daily for 21 days H and E staining based optical microscopic method; assay type: organism-based; conditions: in vivo, 504 h, dose 15-45 mg/kg, time 21 day
Androgen receptor = target: T1, Androgen receptor (Homo sapiens, UniProt P10275); experiment: Antagonist activity at Androgen receptor (unknown origin) expressed in COS7 cells by dual luciferase reporter gene assay relative to control; assay type: cell-based
T1 sequence (P10275 whole entry): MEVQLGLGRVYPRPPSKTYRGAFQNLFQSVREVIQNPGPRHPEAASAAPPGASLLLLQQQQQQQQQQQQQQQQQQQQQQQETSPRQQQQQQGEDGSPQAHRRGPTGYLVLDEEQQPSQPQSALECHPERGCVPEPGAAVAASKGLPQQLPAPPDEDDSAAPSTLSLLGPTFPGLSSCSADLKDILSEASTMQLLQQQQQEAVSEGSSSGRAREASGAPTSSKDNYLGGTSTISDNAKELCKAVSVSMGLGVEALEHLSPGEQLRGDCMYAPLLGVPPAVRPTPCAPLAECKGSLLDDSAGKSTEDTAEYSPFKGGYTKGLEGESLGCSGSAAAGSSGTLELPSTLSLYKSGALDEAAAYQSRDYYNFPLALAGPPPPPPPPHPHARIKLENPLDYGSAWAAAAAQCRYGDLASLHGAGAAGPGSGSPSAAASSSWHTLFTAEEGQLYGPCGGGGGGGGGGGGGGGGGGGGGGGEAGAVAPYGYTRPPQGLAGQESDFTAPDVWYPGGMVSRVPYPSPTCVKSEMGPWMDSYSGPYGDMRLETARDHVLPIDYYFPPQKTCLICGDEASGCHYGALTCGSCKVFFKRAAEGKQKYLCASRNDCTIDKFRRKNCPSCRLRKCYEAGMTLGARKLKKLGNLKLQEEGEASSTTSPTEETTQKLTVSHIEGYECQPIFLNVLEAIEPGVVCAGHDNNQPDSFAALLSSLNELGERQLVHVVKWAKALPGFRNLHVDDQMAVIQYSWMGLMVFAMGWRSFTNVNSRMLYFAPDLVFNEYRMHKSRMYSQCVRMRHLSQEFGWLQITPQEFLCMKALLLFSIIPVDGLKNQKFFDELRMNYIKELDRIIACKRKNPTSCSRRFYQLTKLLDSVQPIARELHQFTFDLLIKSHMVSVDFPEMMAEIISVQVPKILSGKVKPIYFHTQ

[11] = Toxicity in BALB/c mouse xenografted with human LNCaP cells assessed as pathological changes in liver at 15 to 45 mg/kg, po administered daily for 21 days H and E staining based optical microscopic method; assay type: organism-based; conditions: in vivo, 504 h, dose 15-45 mg/kg, time 21 day
LNCaP [12] = experiment: Antitumour activity against human LNCaP cells xenografted in BALB/c nude mouse assessed as decrease in PSA level at 30 mg/kg, po administered daily for 21 days by ELISA relative to control; assay type: functional; design: scale not given: the % may be the effect or the level left; conditions: time 21 day
LNCaP [13] = experiment: Antitumour activity against human LNCaP cells xenografted in BALB/c nude mouse assessed as reduction in tumour weight at 45 mg/kg, po administered daily for 21 days relative to control; assay type: functional; conditions: Mus musculus, LNCaP, po, 504 h, time 21 day, read-out: TGI
LNCaP [14] = experiment: Antitumour activity against human LNCaP cells xenografted in po dosed BALB/c nude mouse assessed as reduction in tumour size administered daily for 21 days; assay type: functional, organism-based; conditions: dose 15-45 mg/kg, time 21.0 day
[15] = Toxicity in BALB/c mouse xenografted with human LNCaP cells assessed as pathological changes in heart at 15 to 45 mg/kg, po administered daily for 21 days H and E staining based optical microscopic method; assay type: organism-based; conditions: in vivo, 504 h, dose 15-45 mg/kg, time 21 day
[16] = Half life in human liver microsomes at 10 uM; assay type: ADME, Microsome
LNCaP [17] = experiment: Antitumour activity against human LNCaP cells xenografted in po dosed BALB/c nude mouse assessed as decrease in PSA level administered daily for 21 days by ELISA; assay type: functional, organism-based; conditions: dose 15-45 mg/kg, time 21.0 day
LNCaP [18] = experiment: Antiproliferative activity against human LNCaP cells assessed as reduction in cel viability after 72 hrs by MTT assay; assay type: functional, cell-based
LNCaP [19] = experiment: Antitumour activity against human LNCaP cells xenografted in BALB/c nude mouse assessed as decrease in PSA level at 15 mg/kg, po administered daily for 21 days by ELISA relative to control; assay type: functional; design: scale not given: the % may be the effect or the level left; conditions: time 21 day
[20] = Stability in human liver microsomes assessed as parent compound remaining at 10 uM; assay type: ADME, Microsome; conditions: read-out: Stabilty
LNCaP [21] = experiment: Antitumour activity against human LNCaP cells xenografted in po dosed BALB/c nude mouse assessed as reduction in tumour weight administered daily for 21 days; assay type: functional, organism-based; conditions: dose 15-45 mg/kg, time 21.0 day
LNCaP [22] = experiment: Antitumour activity against human LNCaP cells xenografted in po dosed BALB/c nude mouse assessed as reduction in tumour volume administered daily for 21 days; assay type: functional, organism-based; conditions: dose 15-45 mg/kg, time 21.0 day
[23] = Toxicity in ICR mouse assessed as pathological changes in prostate […] at 100 to 1000 mg/kg, po administered for 14 days by H and E staining based optical microscopic method; assay type: organism-based; conditions: in vivo, 336 h, dose 100-1000 mg/kg, time 14 day
DU-145 = experiment: Antiproliferative activity against human DU-145 cells assessed as reduction in cel viability after 72 hrs by MTT assay; assay type: functional, cell-based; conditions: DU-145, 72 h
LNCaP [24] = experiment: Antitumour activity against human LNCaP cells xenografted in BALB/c nude mouse assessed as increase in karyorrhexis at 15 to 45 mg/kg, po administered daily for 21 days by H and E staining based optical microscopic method; assay type: functional, organism-based; conditions: dose 15-45 mg/kg, time 21.0 day

In the case of `CCOC(=O)Nc1cc2c(cc1F)CC1C(=O)N(c3cnc(C#N)c(C(F)(F)F)c3)C(=S)N1C2` (configuration not stated), the Activity [1] is reported as “Non-Toxic”, the Activity [2] is reported as “Non-Toxic” and the Activity (LNCaP [3]) is reported as “Active”. For the same compound, the Activity (LNCaP [4]) was 73%, the inhibition in vivo at 30 mg/kg (LNCaP [5]) was 39% and the Activity [6] was “Non-Toxic”. For the same compound, the inhibition in vivo at 15 mg/kg (LNCaP [7]) was 12%, the Activity [8] was “Non-Toxic” and the Activity [9] was “Non-Toxic”. For the same compound, the CLint scaled at 10 µM (in vitro) was 7.86 mL/min/kg, the Activity [10] was “Non-Toxic” and the IC50 (Androgen receptor) was 6.17 µM. For the same compound, the Activity [11] was “Non-Toxic”, the Activity (LNCaP [12]) was 43% and the inhibition in vivo at 45 mg/kg (LNCaP [13]) was 79%. The Activity (LNCaP [14]) was “Dose-dependent effect”, the Activity [15] was “Non-Toxic” and the half-life at 10 µM [16] was 4.36 h. For the same compound, the Activity (LNCaP [17]) was “Dose-dependent effect”, the IC50 (LNCaP [18]) was 14.8 µM and the Activity (LNCaP [19]) was 24%. For the same compound, the remaining at 10 µM [20] was 87.1%, the Activity (LNCaP [21]) was “Dose-dependent effect” and the Activity (LNCaP [22]) was “Dose-dependent effect”. For the same compound, the Activity [23] was “Non-Toxic”, the IC50 (DU-145) was 94.3 µM and the Activity (LNCaP [24]) was “Active”.
